Drawing on patent publication US12122787B2, “Fused pyridone compound, and preparation method therefor and use thereof” (SHANGHAI JEMINCARE PHARMACEUTICALS CO., LTD, priority 2019, dated 2024), this text covers IC50 for 35 compounds.

Like-named read-outs stand apart in the source and are kept apart here.

This experiment has as its system phosphorylated ERK (Thr202/Tyr204) in NCI-H358 cells expressing mutant RAS(G12C). Put plainly: Inhibition of RAS-mediated signal transduction: phosphorylated ERK ELISA in NCI-H358 cells. It counts as cell-based. Conditions: NCI-H358 cells, 2 hours of treatment, pERK normalized by Janus Green B, read-out: p-ERK IC50 (NCI H358). How it is done:
The cells were treated with or without the compound of the present disclosure (dimethyl sulfoxide, DMSO), and the final concentration of DMSO was guaranteed to be 0.5%. After 2 hours of treatment, the medium was removed and 4% paraformaldehyde (Beyotime catalog number E672002-0100) was added and left to stand for 20 minutes. Cells were washed with PBS after fixation and incubated with precooled methanol for 10 min to permeabilize the cell membrane.
The level of phosphorylated ERK was detected using an enzyme linked immunosorbent assay (ELISA) method. […] The plates were washed 5 times with PBS containing 0.05% Tween 20. […] The reaction was stopped by adding 1 mol/L H2SO4, and the OD value was read at 450 nm by EnVision (PerkinElmer).
The total number of cells per well was detected by Janus Green B staining method. After detecting the level of phosphorylated ERK, the 96-well plate was washed with PBS until colorless, and 0.1% Janus Green B (Abcam catalogue number ab111622) was added to incubate for 10 minutes. After the 96-well plate was washed with double distilled water, 0.1 mol/L HCl was added, then the mixture was shaked and incubated for 10 minutes. The OD value was read at 595 nm by EnVision (PerkinElmer).
The signal of pERK (Thr202/Tyr204) was normalized by the signal value of Janus Green B, and the inhibition percentage after drug treatment relative to DMSO reference was calculated. The percentage values were fitted by a four-parameter dose-response curve and generated IC50 values.
(In general: ELISA stands for enzyme-linked immunosorbent assay.)

Turning to `C=CC(=O)N1C[C@@H]2C(=O)N(C)c3c(c4cc(F)c(-c5c(O)cccc5F)c(F)c4n(-c4c(C)ccnc4C(C)C)c3=O)N2C[C@H]1C` [Compound 21B], the IC50 (in general, the concentration that inhibits the measured activity by half) was determined as 306 nM.

As for `C=CC(=O)N1C[C@@H]2C(=O)Nc3c(c4cc(F)c(-c5c(O)cccc5F)c(F)c4n(-c4c(C)ccnc4C(C)C)c3=O)N2C[C@H]1C` [Compound 22B], the IC50 was 548 nM.

`C=CC(=O)N1C[C@@H]2COc3c(c4cc(F)c(-c5c(F)cccc5OC)nc4n(-c4ccccc4C(C)C)c3=O)N2C[C@H]1C` [Compound 1A]: the IC50 (Homo sapiens, NCI-H358, 2 h) was 173 nM.

Regarding `C=CC(=O)N1C[C@@H]2C(=O)N(C)c3c(c4cc(F)c(-c5c(O)cccc5F)c(F)c4n(-c4c(C)ccnc4C(C)C)c3=O)N2C[C@H]1C` [Compound 21A], the IC50 came to 13 nM.

Take `C=CC(=O)N1C[C@@H]2COc3c(c4cc(Cl)c(-c5c(O)cccc5F)nc4n(C)c3=O)N2C[C@H]1C` [Compound 9]: the concentration for half-maximal inhibition (IC50) (Homo sapiens, NCI-H358, 2 h) worked out at 1960 nM.

Consider `C=CC(=O)N1C[C@@H]2C(=O)N(C)c3c(c4cc(F)c(-c5ccccc5F)c(F)c4n(-c4c(C)ccnc4C(C)C)c3=O)N2C[C@H]1C` [Compound 31A], for which, for the setting “Homo sapiens, NCI-H358, 2 h”, the IC50 stood at 2160 nM.

On to `C=CC(=O)N1CCN2c3c(c(=O)n(-c4ccccc4C(C)C)c4nc(-c5c(O)cccc5F)c(F)cc34)OC[C@H]2C1` [Compound 12A], for which the IC50 (Homo sapiens, NCI-H358, 2 h) worked out at 604 nM.

For `C=CC(=O)N1C[C@@H]2CN(CC(=O)OC)c3c(c4cc(F)c(-c5c(O)cccc5F)c(F)c4n(-c4c(C)ccnc4C(C)C)c3=O)N2C[C@H]1C` [Compound 38B-1], the IC50 turned out to be 1130 nM.

In the case of `C=CC(=O)N1C[C@@H]2CN(CC(=O)O)c3c(c4cc(F)c(-c5c(O)cccc5F)c(F)c4n(-c4c(C)ccnc4C(C)C)c3=O)N2C[C@H]1C` [Compound 39A], the IC50 came to 798 nM.

Consider `C=CC(=O)N1C[C@@H]2C(=O)N(CCN(C)C)c3c(c4cc(Cl)c(-c5c(O)cccc5F)c(F)c4n(-c4c(CC)ccnc4C(C)C)c3=O)N2C[C@H]1C` (atropisomer, axis not shown) [Compound 54A-2], for which the IC50 was 844 nM.

In the case of `C=CC(=O)N1C[C@@H]2CN(C)c3c(c4cc(F)c(-c5c(O)cccc5F)c(F)c4n(-c4c(C)ccnc4C(C)C)c3=O)N2C[C@H]1C` (atropisomer, axis not shown) [Compound 16B-1], the IC50 stood at 648 nM.

With `C=CC(=O)N1C[C@@H]2COc3c(c4cc(F)c(-c5c(O)cccc5F)c(F)c4n(-c4c(C)ccnc4C(C)C)c3=O)N2C[C@H]1C` (atropisomer, axis not shown) [Compound 3A-1], the IC50 is 3010 nM.

With `C=CC(=O)N1C[C@@H]2CNc3c(c4cc(F)c(-c5c(O)cccc5F)nc4n(-c4ccccc4C(C)C)c3=O)N2C[C@H]1C` [Compound 11A], under “Homo sapiens, NCI-H358, 2 h”, the IC50 amounted to 1120 nM.

For `C=CC(=O)N1C[C@@H]2C(=O)N(CCN(C)C)c3c(c4cc(F)c(-c5c(O)cccc5F)c(F)c4n(-c4c(C)ccnc4C(C)C)c3=O)N2C[C@H]1C` [Compound 24A], the IC50 (Homo sapiens, NCI-H358, 2 h) was 3820 nM.

Consider `C=CC(=O)N1C[C@@H]2COc3c(c4cc(F)c(-c5c(O)cccc5F)c(F)c4n(-c4c(C)ccnc4C(C)C)c3=O)N2C[C@H]1C` [Compound 3A-2], for which the IC50 worked out at 5240 nM.

With `C=CC(=O)N1C[C@@H]2CN(CCCN(C)C)c3c(c4cc(F)c(-c5c(O)cccc5F)c(F)c4n(-c4c(C)ccnc4C(C)C)c3=O)N2C[C@H]1C` [Compound 34A], where the note is “Homo sapiens, NCI-H358, 2 h”, the IC50 is 503 nM.

For `C=CC(=O)N1C[C@@H]2C(=O)N(C3CN(C)C3)c3c(c4cc(F)c(-c5c(F)cccc5OC)c(F)c4n(-c4c(C)ccnc4C(C)C)c3=O)N2C[C@H]1C` [Compound 43], the IC50 (Homo sapiens, NCI-H358, 2 h) is 1920 nM.

Regarding `C=CC(=O)N1C[C@]2(CO)C(=O)N(C)c3c(c4cc(F)c(-c5c(O)cccc5F)nc4n(-c4c(C)ccnc4C(C)C)c3=O)N2C[C@H]1C` [Compound 51A], the IC50 (Homo sapiens, NCI-H358, 2 h) stood at 1280 nM.

With `C=CC(=O)N1C[C@@H]2C(=O)N(C)c3c(c4cc(F)c(-c5c(C)ccc6[nH]nc(C7CC7)c56)c(F)c4n(-c4c(C)ccnc4C(C)C)c3=O)N2C[C@H]1C` [Compound 47A], the IC50 (Homo sapiens, NCI-H358, 2 h) turned out to be 1560 nM.

As for `C=CC(=O)N1C[C@@H]2COc3c(c4cc(F)c(-c5c(C)ccc6[nH]cnc56)nc4n(-c4ccccc4C(C)C)c3=O)N2C[C@H]1C` [Compound 17], the IC50 (Homo sapiens, NCI-H358, 2 h) came out at 275 nM.

Regarding `C=CC(=O)N1C[C@@H]2COc3c(c4cc(F)c(-c5c(F)cccc5OC)nc4n(-c4c(C)ccnc4C(C)C)c3=O)N2C[C@H]1C` (single isomer, unassigned) [Compound 6B], the IC50 turned out to be 691 nM.

As for `C=CC(=O)N1C[C@@H]2C(=O)N(CCN(C)C)c3c(c4cc(Cl)c(-c5c(O)cccc5F)c(F)c4n(-c4c(CC)ccnc4C(C)C)c3=O)N2C[C@H]1C` [Compound 54A-1], the IC50 was 641 nM.

On to `C=CC(=O)N1C[C@@H]2C(=O)N(CCN(C)C)c3c(c4cc(F)c(-c5c(F)cccc5OC)c(F)c4n(-c4c(C)ccnc4C(C)C)c3=O)N2C[C@H]1C` [Compound 48A-1], for which the IC50 (Homo sapiens, NCI-H358, 2 h) turned out to be 294 nM.

Turning to `C=CC(=O)N1C[C@@H]2C(=O)N(C)c3c(c4cc(Cl)c(-c5c(O)cccc5F)c(F)c4n(-c4c(C)ccnc4C(C)C)c3=O)N2C[C@H]1C` [Compound 23B-2], the 50% inhibitory concentration (IC50) is 749 nM.

For `C=CC(=O)N1C[C@@H]2C(=O)N(C)c3c(c4cc(F)c(-c5ccccc5O)c(F)c4n(-c4c(C)ccnc4C(C)C)c3=O)N2C[C@H]1C` [Compound 46A], for the setting “Homo sapiens, NCI-H358, 2 h”, the IC50 was determined as 2050 nM.

Consider `C=CC(=O)N1C[C@@H]2C(=O)N(C)c3c(c4cc(F)c(-c5c(O)cccc5F)c(F)c4n(-c4c(C)ccnc4C(C)C)c3=O)N2C[C@H]1C` [Compound 21B-1], for which the half-maximal inhibitory concentration (IC50) amounted to 2240 nM.

For the compound `C=CC(=O)N1C[C@@H]2COc3c(c4cc(Cl)c(-c5c(O)cccc5F)c(F)c4n(C[C@@H]4CCCN4C)c3=O)N2C[C@H]1C` [Compound 45A], the IC50 (Homo sapiens, NCI-H358, 2 h) turned out to be 1540 nM.

Regarding `C=CC(=O)N1C[C@@H]2C(=O)N(C)c3c(c4cc(F)c(-c5c(N)cccc5F)c(F)c4n(-c4c(C)ccnc4C(C)C)c3=O)N2C[C@H]1C` [Compound 33A-1], the IC50 (Homo sapiens, NCI-H358, 2 h) is 717 nM.

Turning to `C=CC(=O)N1C[C@@H]2C(=O)Nc3c(c4cc(F)c(-c5c(O)cccc5F)c(F)c4n(-c4c(C)ccnc4C(C)C)c3=O)N2C[C@H]1C` [Compound 22B-1], the IC50 came to 213 nM.

For the compound `C=CC(=O)N1C[C@@H]2COc3c(c4cc(F)c(-c5c(C)ccc6[nH]ncc56)nc4n(-c4ccccc4C(C)C)c3=O)N2C[C@H]1C` (single isomer, unassigned) [Compound 13B], the IC50 turned out to be 5670 nM.

For the compound `C=CC(=O)N1C[C@@H]2C(=O)N(C)c3c(c4cc(Cl)c(-c5c(O)cccc5F)c(F)c4n(-c4c(C)ccnc4C(C)C)c3=O)N2C[C@H]1C` [Compound 23B-1], the IC50 came out at 150 nM.

Consider `C=CC(=O)N1C[C@@H]2CN(C)c3c(c4cc(F)c(-c5c(O)cccc5F)c(F)c4n(-c4c(C)ccnc4C(C)C)c3=O)N2C[C@H]1C` (single isomer, unassigned) [Compound 16B], for which the 50% inhibitory concentration (IC50) came to 1250 nM.

With `C=CC(=O)N1CC2COc3c(c4cc(F)c(-c5c(O)cccc5F)c(F)c4n(-c4c(C(C)C)ncnc4C(C)C)c3=O)N2CC1C` (single isomer, unassigned) [Compound 19B], the IC50 amounted to 936 nM.

For the compound `C=CC(=O)N1C[C@@H]2CN(CC(=O)OC)c3c(c4cc(F)c(-c5c(O)cccc5F)c(F)c4n(-c4c(C)ccnc4C(C)C)c3=O)N2C[C@H]1C` [Compound 38A-1], the IC50 came out at 242 nM.

Take `C=CC(=O)N1C[C@@H]2CN(CC(=O)O)c3c(c4cc(F)c(-c5c(O)cccc5F)c(F)c4n(-c4c(C)ccnc4C(C)C)c3=O)N2C[C@H]1C` [Compound 39A-1]: the IC50 worked out at 1640 nM.
